Measured values published in patent publication US4652553A, “Steroidal glycolipids as host resistance stimulators” (priority 1985, dated 1987).

System: Pseudomonas aeruginosa
Assay: In vivo protection of cyclophosphamide-immunocompromised mice against Pseudomonas aeruginosa (LD50, protective index)
Set-up: species or system Pseudomonas aeruginosa (Immunotype 1); CFl female mice
Settings: Table 3; cyclophosphamide-treated mice; dose not stated in table (initial test dose 40 mg per kg)
Protocol: Groups of 15-20 CFl femal mice (Charles River Breeding, Cambridge, MA) weighing 22-28 gm were injected intraperitoneally (i.p.) with cyclophosphamide (Cytoxan; CY) at 250 mg per kg body weight. One to two hours later they were typically injected again with the test material by the route specified. Four days later, the mice were divided into groups of five, each of which were injected i.p. with a different dilution of a suspension of Pseudomonas aeruginosa (Immunotype 1). The number of survivors was determined periodically and an estimate was made of the number of CFU of Pseudomonas organisms necessary to cause 50% lethality by the cumulative method of L. J. Reed and H. Muench (Am. J. Hygiene 27 (1938) 493-497). A protective index (P.I.) was defined as the LD50 for the mice receiving cyclophosphamide and the test compound divided by the LD50 for the mice recieving cyclophosphamide alone. All control mice were injected with aqueous vehicle in the same route and schedule as the test animals.
All compounds for dosing were suspended in a sterile medium referred to as "aqueous vehicle" which contains 0.9% sodium chloride, 0.5% carboxymethyl cellulose, 0.4% Tween 80, and 0.9% benzyl alcohol unless otherwise stated. Test materials were evaluated via subcutaneous (s.c.), i.p., intramuscular (i.m.), orally (p.o.). and intravenous (i.v.) routes of administration. […]

Question: How did the “Protective Index (log)” value turn out when `C[C@H](N)[C@H]1CC[C@H]2[C@@H]3CC=C4C[C@@H](OCCCCCCS[C@@H]5O[C@H](CO)[C@@H](O)[C@H](O)[C@@H]5O)CC[C@]4(C)[C@H]3CC[C@]12C` [Example 14, 6-(20S-Amino-pregn-5-en-3β-yloxy)hexyl 1-thio-β-D-mannopyranoside] was run?
Answer: 4.37 log
